Series [1] has as its system Human immunodeficiency virus 2. As to the kind of experiment: Antiviral activity against HIV2 assessed as inhibition of viral replication treated at time points after viral entry into host cells. In kind it is functional, organism-based.
Series [2] deals with Human immunodeficiency virus 2. The series is described as follows: Inhibition of HIV2 reverse transcriptase.
Series [3] relates to Human immunodeficiency virus 1. The series is described as follows: Antiviral activity against HIV1 infected in human CEM-SS cells assessed as inhibition of viral replication and virus-induced cytopathic effect by dose-response curve analysis. In kind it is functional. The conditions noted are these: Human immunodeficiency virus 1, CEM-SS. (In general: Cytopathic effects are the visible damage that an infection or toxin causes in cultured cells.)

A short description of series [4]: Therapeutic index, ratio of TC50 human HeLa cells expressing CD4-LTR to EC50 for HIV1 entry inhibition in human HeLa cells expressing CD4-LTR. The conditions noted are these: read-out: TI. In kind it is cell-based.
In series [5] the test system is Human immunodeficiency virus 2. As to the kind of experiment: Antiviral activity against HIV2 ROD infected in human CEM-SS cells assessed as inhibition of virus-induced cytopathic effect by XTT assay. It is filed as functional, organism-based, ISOLATE ROD.
A short description of series [6]: Therapeutic index, ratio of TC50 for human CEM-SS cells to EC50 for HIV1 RF infected in human CEM-SS cells. In kind it is cell-based. As to conditions: read-out: TI.
The test system of series [7] is Human immunodeficiency virus 1. As to the kind of experiment: Antiviral activity against HIV1 infected in human HeLa cells expressing CD4-LTR assessed as inhibition of viral entry-related beta galactosidase expression treated for 2 hrs followed by drug wash out measured after 48 hrs by MAGI assay. It is filed as functional, organism-based. The conditions noted are these: Human immunodeficiency virus 1, HeLa.

For series [8], the system named is Human immunodeficiency virus 2. As to the kind of experiment: Antiviral activity against HIV2 assessed as inhibition of viral single round replication at early time point. It is filed as functional, organism-based.
Series [9] can be described thus: Cytotoxicity against human HeLa cells expressing CD4-LTR by XTT assay. It is filed as cell-based. The conditions noted are these: read-out: TC50 (the source's name). In general terms: Formazan colour is commonly taken as a measure of viable cells.
Series [10] addresses Human immunodeficiency virus type 1 reverse transcriptase (Human immunodeficiency virus 1, UniProt Q72547, K103N). As to the kind of experiment: Inhibition of HIV1 reverse transcriptase K103N mutant assessed as 32P-labeled GMP incorporation into nascent DNA strand.
Series [11] in a line: Cytotoxicity against human CEM-SS cells by XTT assay. In kind it is cell-based. The conditions noted are these: read-out: TC50 (the source's name).
The target of series [12] is Human immunodeficiency virus type 1 reverse transcriptase (Human immunodeficiency virus 1, UniProt Q72547). As to the kind of experiment: Inhibition of wild type HIV1 reverse transcriptase assessed as 32P-labeled GMP incorporation into nascent DNA strand.
Series [13] is described as follows: Therapeutic index, ratio of TC50 for human CEM-SS cells to EC50 for HIV2 ROD infected in human CEM-SS cells. It is filed as cell-based. As to conditions: for selectivity ratio: CEM-SS cells, read-out: TI; for TI: cem-ss.
Series [14] relates to Human immunodeficiency virus 2. The series is described as follows: Inhibition of HIV2 reverse transcriptase assessed as 32P-labeled GMP incorporation into nascent DNA strand at highest concentration.
In series [15] the test system is Human immunodeficiency virus 1. The series is described as follows: Antiviral activity against HIV1 RF infected in human CEM-SS cells assessed as inhibition of virus-induced cytopathic effect by XTT assay. In kind it is functional, organism-based. The conditions noted are these: Human immunodeficiency virus 1, RF.
[16] abbreviates: Human immunodeficiency virus 2, ISOLATE ROD, CEM-SS, read-out: EC50.

Molecules are shown by their SMILES. Active and inactive are the calls of the source.

This note sets out measurements from ChEMBL document CHEMBL1152465, “Comparative evaluation of the inhibitory activities of a series of pyrimidinedione congeners that inhibit human immunodeficiency virus types 1 and 2” (Antimicrob Agents Chemother, 2008).

Broadly, the EC99 is the point of the concentration-response curve where the effect stands at 99%. Broadly, the EC50 is the midpoint of the concentration-response curve. The term IC50 denotes the concentration at which inhibition is half-maximal. In the case of `CCc1c(Sc2cc(C)cc(C)c2)n(CCC2=CCCC2)c(=O)[nH]c1=O`, the result in series [1], in series [2] and in series [14] was inactive. Besides, the EC99 in [3] is 1 µM. Further, the selectivity ratio was 4400 in [4], 528 in [6] and 7.4 in [13]. Also, the EC50 was determined as 19.2 µM in series [5] (setting [16]), 30 nM in series [7] and 270 nM in [15]. In series [8], the result was Active. Besides, the CC50 in [9] and in series [11] was 143 µM each time. Also, the values for the IC50 in [10] and in [12] were 18.3 µM and 2160 nM, respectively.

Turning to `CCc1c(Oc2cc(C)cc(C)c2)n(CC2CCCCC2)c(=O)[nH]c1=O`, the result in [1], in [2] and in series [14] was inactive. In [3], the concentration for an effect of 99% (EC99) was 1 µM. For the same compound, the selectivity ratio amounted to 555 in series [4], 5140 in series [6] and 28.6 in [13]. The EC50 in series [5] (setting [16]) was 5.1 µM; in [7] it was 230 nM; in series [15], 28 nM. In addition, the outcome in [8] was Active. Besides, the results for the CC50 in series [9] and in series [11] were 129 µM and 114 µM, respectively. Further, the IC50 in [10] came out at 1.9 µM; in series [12] it was 132 nM.

As for `Cc1cc(C)cc(C(=O)c2c(C(C)C)c(=O)[nH]c(=O)n2CCC2CCCC2)c1`, the result in series [1], in series [2] and in [14] was inactive. Further, the EC99 in series [3] worked out at 1 µM. For the same compound, the selectivity ratio worked out at 1460 in series [4] and 1180 in [6]. The EC50 result in [5] (cem-ss) is “Not Active”; in series [7], 14 nM; in series [15], 20 nM. Moreover, the outcome in [8] was Active. Further, the CC50 amounted to 20.6 µM in series [9] and 17.3 µM in [11]. Moreover, the half-maximal inhibitory concentration (IC50) in [10] was 2.6 µM; in [12], 65 nM. Moreover, the TI result in series [13] is “Not Active”.

Take `CCc1c(Oc2cc(C)cc(C)c2)n(CCC2CCCC2)c(=O)[nH]c1=O`: the result in series [1], in series [2] and in series [14] was inactive. Also, the EC99 in [3] was determined as 1 µM. Further, the selectivity ratio in [4] stood at 24; in series [6], 57. Besides, the EC50 result is “Not Active” in series [5] (cem-ss), 2350 nM in series [7] and 1490 nM in [15]. Moreover, the result in [8] was Active. The CC50 in series [9] turned out to be 55.9 µM; in series [11], 27 µM. In addition, the IC50 in [10] was determined as 6.4 µM; in series [12] it was 549 nM. The TI result in [13] is given as “Not Active”.

Consider `CCc1c(Sc2cc(C)cc(C)c2)n(CC2CCCC2)c(=O)[nH]c1=O`, for which the result in [1], in series [2] and in series [14] was inactive. The 99% effect concentration (EC99) in series [3] was found to be 1 µM. Besides, the results for the selectivity ratio in [4], in series [6] and in series [13] were 1590, 3980 and 70.4, respectively. Moreover, the EC50 in [5] (setting [16]) was found to be 3.2 µM; in series [7], 140 nM; in series [15] it was 56 nM. The result in series [8] was Active. The CC50 in series [9] and in series [11] was 222 µM in each case. Moreover, the half-maximal inhibitory concentration (IC50) came to 10.5 µM in series [10] and 126 nM in series [12].
